In US8481750B2 (Boehringer Ingelheim International GmbH, priority 2009, dated 2013):

What follows are compounds tested against LFA-1 binding to ICAM-1 (Homo sapiens, UniProt P05107+P20701) (assay: Inhibition of LFA-1 binding to ICAM-1 (LFA-1/Biotin-sICAM-1 AlphaScreen molecular assay)). Details: highest compound concentration 1 μM in 1% DMSO, 37° C., 90 minutes.
From the text: Assay to Determine Inhibition of LFA-1 Binding to ICAM-1
This assay protocol is designed to study the direct antagonism, by a test compound, of the interaction of ICAM-1 with the Leukointegrin CD18/CD11a (LFA-1).
The LFA-1/Biotin-sICAM-1 molecular assay measures the ability of test compounds to inhibit binding of LFA-1 to Biotinylated-sICAM using AlphaScreen technology (Ref: Wilson, J, Rossi, C P, Carboni, S, Fremaux, C, Perrin, D, Soto, C, Kosco-Vilbois, M, and Scheer, A: A Homogeneous 384-Well High-Throughput Binding Assay for a TNF Receptor Using Alphascreen Technology. J Biomol Screen 2003; 8:522-532) that uses TS2/4(anti-LFA-1)-custom conjugated AlphaLisa acceptor beads and streptavidin-coated donor beads from PerkinElmer. The assay was performed in white OptiPlates-384 in a volume of 60 μL using assay buffer (Dulbecco's PBS containing calcium and magnesium, 2 mM MgCl2, 0.1 mM PMSF, 0.1% BSA, pH 7.1). To each well, Biotin-sICAM was added followed by purified LFA-1 (in buffer of 50 mM triethylamine, 150 mM NaCl, 1% beta octylglucoside, 2 mM MgCl2 neutralized to pH with 1M Tris-HCl, pH 7.5). For compound testing, compound was added in 5 uL to the above in 25 uL. LFA-1 and Biotin-sICAM-1 were used at concentrations that would yield a signal to background ratio of 8-10. The highest concentration of compound was 1 μM in 1% DMSO. Positive controls were wells without compound containing LFA-1, while blanks were wells without both compound and LFA-1. Plates were mixed and incubated at 37° C. for 90 minutes. This was followed by addition of 15 μL/well TS2/4-congugated acceptor beads diluted in PBS containing 0.1% BSA for a final concentration of 10 μg/mL. The plates were mixed and incubated in the dark for 30 minutes at room temperature followed by addition of 15 μL/well streptavidin-coated donor beads diluted in PBS containing 0.1% BSA at a final concentration of 15 μg/mL. The plates were mixed and incubated in the dark for 60 minutes at room temperature and then read on an EnVision Multilabel Reader using AlphaScreen 384-well OptiPlate protocol.

Sequence of LFA-1 binding to ICAM-1 (P20701 26-1170): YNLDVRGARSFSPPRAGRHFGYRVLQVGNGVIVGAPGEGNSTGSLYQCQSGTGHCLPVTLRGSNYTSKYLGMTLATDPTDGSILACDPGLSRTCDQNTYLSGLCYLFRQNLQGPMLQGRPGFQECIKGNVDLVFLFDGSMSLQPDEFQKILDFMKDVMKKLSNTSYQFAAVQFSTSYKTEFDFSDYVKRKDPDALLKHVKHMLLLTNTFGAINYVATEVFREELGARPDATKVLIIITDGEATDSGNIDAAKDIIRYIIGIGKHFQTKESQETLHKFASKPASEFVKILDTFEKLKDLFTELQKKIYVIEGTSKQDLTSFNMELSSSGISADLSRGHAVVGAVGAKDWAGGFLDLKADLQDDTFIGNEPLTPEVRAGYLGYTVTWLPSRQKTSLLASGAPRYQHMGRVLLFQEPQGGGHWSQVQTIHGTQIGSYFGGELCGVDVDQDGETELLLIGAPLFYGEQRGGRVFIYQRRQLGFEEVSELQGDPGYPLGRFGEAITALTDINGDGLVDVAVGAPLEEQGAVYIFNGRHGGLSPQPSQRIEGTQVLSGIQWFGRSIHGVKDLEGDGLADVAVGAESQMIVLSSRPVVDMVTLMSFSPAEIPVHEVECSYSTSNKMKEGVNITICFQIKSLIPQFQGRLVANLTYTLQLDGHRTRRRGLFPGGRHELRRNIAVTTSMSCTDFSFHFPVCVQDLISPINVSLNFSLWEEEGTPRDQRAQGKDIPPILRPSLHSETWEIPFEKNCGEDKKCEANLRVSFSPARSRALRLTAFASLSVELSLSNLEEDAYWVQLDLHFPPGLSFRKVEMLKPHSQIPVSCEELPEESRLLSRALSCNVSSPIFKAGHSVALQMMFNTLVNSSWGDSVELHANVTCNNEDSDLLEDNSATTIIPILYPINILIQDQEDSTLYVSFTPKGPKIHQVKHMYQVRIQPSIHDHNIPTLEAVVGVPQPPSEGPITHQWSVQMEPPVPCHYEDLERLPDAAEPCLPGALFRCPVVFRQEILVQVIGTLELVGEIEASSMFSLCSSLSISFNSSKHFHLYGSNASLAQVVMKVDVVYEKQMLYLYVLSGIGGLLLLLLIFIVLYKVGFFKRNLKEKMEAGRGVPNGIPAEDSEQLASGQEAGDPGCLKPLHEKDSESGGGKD
Sequence of LFA-1 binding to ICAM-1 (P05107 23-769): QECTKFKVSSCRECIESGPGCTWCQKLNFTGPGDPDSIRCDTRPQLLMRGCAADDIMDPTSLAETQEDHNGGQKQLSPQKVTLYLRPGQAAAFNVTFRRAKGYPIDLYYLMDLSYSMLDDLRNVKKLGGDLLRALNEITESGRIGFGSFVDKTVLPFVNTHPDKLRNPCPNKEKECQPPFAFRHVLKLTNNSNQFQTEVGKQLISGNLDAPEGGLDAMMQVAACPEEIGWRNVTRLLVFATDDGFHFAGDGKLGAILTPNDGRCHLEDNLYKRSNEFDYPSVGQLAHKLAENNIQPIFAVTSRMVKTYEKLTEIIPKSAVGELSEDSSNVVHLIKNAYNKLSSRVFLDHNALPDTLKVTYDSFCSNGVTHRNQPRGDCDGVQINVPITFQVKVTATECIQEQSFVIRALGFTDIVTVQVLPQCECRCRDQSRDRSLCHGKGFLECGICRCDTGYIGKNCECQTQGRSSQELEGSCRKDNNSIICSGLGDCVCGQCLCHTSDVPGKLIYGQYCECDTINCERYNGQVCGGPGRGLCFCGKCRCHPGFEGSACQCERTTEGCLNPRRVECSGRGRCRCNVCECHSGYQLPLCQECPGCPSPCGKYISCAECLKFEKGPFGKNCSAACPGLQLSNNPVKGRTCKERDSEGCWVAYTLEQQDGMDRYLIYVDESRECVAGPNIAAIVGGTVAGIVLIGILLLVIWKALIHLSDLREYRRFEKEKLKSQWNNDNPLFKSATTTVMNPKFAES

| IC50 [nM] | Structure (SMILES) |
| --- | --- |
| 1.1 | C[C@@]1(Cc2ccc(C#N)cc2)C(=O)N(c2cc(Cl)cc(Cl)c2)c2ncc(C(=O)NC3(C(=O)NC4(c5cccc(C(N)=O)n5)CC4)CC3)n21 [compound 98] |
| 1.5 | C[C@@]1(Cc2ccc(C#N)cc2)C(=O)N(c2cc(Cl)cc(Cl)c2)c2ncc(C(=O)NC3(C(=O)NC4(c5ccc(C(=O)NCc6ccccc6)cn5)CC4)CC3)n21 [compound 81] |
| 33 | C[C@@H](NC(=O)c1cccc(C2(NC(=O)C3(NC(=O)c4cnc5n4[C@](C)(Cc4ccc(C#N)cc4)C(=O)N5c4cc(Cl)cc(Cl)c4)CC3)CC2)n1)c1ccccc1 [compound 118] |
| 0.56 | CC(C)(CO)NC(=O)c1ccc(C2(NC(=O)C3(NC(=O)c4cnc5n4[C@](C)(Cc4ccc(C#N)cc4)C(=O)N5c4cc(Cl)cc(Cl)c4)CC3)CC2)nc1 [compound 86] |
| 0.39 | C[C@@]1(Cc2ccc(C#N)cc2)C(=O)N(c2cc(Cl)cc(Cl)c2)c2ncc(C(=O)NC3(C(=O)NC4(c5ccc(C(=O)NCCO)cn5)CC4)CC3)n21 [compound 35] |
| 0.74 | C[C@@]1(Cc2ccc(C#N)cc2)C(=O)N(c2cc(Cl)cc(Cl)c2)c2ncc(C(=O)NC3(C(=O)NC4(c5ccc(C(=O)NC6CCC6)cn5)CC4)CC3)n21 [compound 71] |
| 0.82 | C[C@@]1(Cc2ccc(C#N)cc2)C(=O)N(c2cc(Cl)cc(Cl)c2)c2ncc(C(=O)NC3(C(=O)NC4(c5cc(C(=O)NCCc6ccccn6)ccn5)CC4)CC3)n21 [compound 6] |
| 0.75 | C[C@@]1(Cc2ccc(C#N)cc2)C(=O)N(c2cc(Cl)cc(Cl)c2)c2ncc(C(=O)NC3(C(=O)NC4(c5cc(C(=O)N6CC[C@H](O)C6)ccn5)CC4)CC3)n21 [compound 103] |
| 1.3 | C[C@@]1(Cc2ccc(C#N)cc2)C(=O)N(c2cc(Cl)cc(Cl)c2)c2ncc(C(=O)NC3(C(=O)NC4(c5cccc(C(=O)NCc6ccccn6)n5)CC4)CC3)n21 [compound 92] |
| 2.1 | CC(=O)N1CCN(C(=O)c2cccc(C3(NC(=O)C4(NC(=O)c5cnc6n5[C@](C)(Cc5ccc(C#N)cc5)C(=O)N6c5cc(Cl)cc(Cl)c5)CC4)CC3)n2)CC1 [compound 22] |
| 0.41 | C[C@@]1(Cc2ccc(C#N)cc2)C(=O)N(c2cc(Cl)cc(Cl)c2)c2ncc(C(=O)NC3(C(=O)NC4(c5ccc(C(=O)NCCn6ccnc6)cn5)CC4)CC3)n21 [compound 109] |
| 0.3 | C[C@@]1(Cc2ccc(C#N)cc2)C(=O)N(c2cc(Cl)cc(Cl)c2)c2ncc(C(=O)NC3(C(=O)NC4(c5cc(C(=O)NCCC(N)=O)ccn5)CC4)CC3)n21 [compound 107] |
| 0.74 | C[C@@]1(Cc2ccc(C#N)cc2)C(=O)N(c2cc(Cl)cc(Cl)c2)c2ncc(C(=O)NC3(C(=O)NC4(c5ccc(C(=O)N6CC[C@H](O)C6)cn5)CC4)CC3)n21 [compound 130] |
| 1.1 | CN1CCN(C(=O)c2ccnc(C3(NC(=O)C4(NC(=O)c5cnc6n5[C@](C)(Cc5ccc(C#N)cc5)C(=O)N6c5cc(Cl)cc(Cl)c5)CC4)CC3)c2)CC1 [compound 156] |
| 4.5 | CC(=O)N(C)C1CCN(C(=O)c2cccc(C3(NC(=O)C4(NC(=O)c5cnc6n5[C@](C)(Cc5ccc(C#N)cc5)C(=O)N6c5cc(Cl)cc(Cl)c5)CC4)CC3)n2)C1 (some centres unmarked) [compound 45] |
| 0.78 | CC(NC(=O)c1ccc(C2(NC(=O)C3(NC(=O)c4cnc5n4[C@](C)(Cc4ccc(C#N)cc4)C(=O)N5c4cc(Cl)cc(Cl)c4)CC3)CC2)nc1)c1ccncc1 (some centres unmarked) [compound 46] |
| 0.8 | C[C@H](CO)NC(=O)c1ccc(C2(NC(=O)C3(NC(=O)c4cnc5n4[C@](C)(Cc4ccc(C#N)cc4)C(=O)N5c4cc(Cl)cc(Cl)c4)CC3)CC2)nc1 [compound 141] |
| 0.34 | C[C@@]1(Cc2ccc(C#N)cc2)C(=O)N(c2cc(Cl)cc(Cl)c2)c2ncc(C(=O)NC3(C(=O)NC4(c5ccc(C(=O)N6CCC(CO)CC6)cn5)CC4)CC3)n21 [compound 85] |
| 0.67 | C[C@@]1(Cc2ccc(C#N)cc2)C(=O)N(c2cc(Cl)cc(Cl)c2)c2ncc(C(=O)NC3(C(=O)NC4(c5cc(C(=O)NCc6ccccn6)ccn5)CC4)CC3)n21 [compound 79] |
| 0.34 | C[C@@]1(Cc2ccc(C#N)cc2)C(=O)N(c2cc(Cl)cc(Cl)c2)c2ncc(C(=O)NC3(C(=O)NC4(c5cc(C(=O)NCCc6ccncc6)ccn5)CC4)CC3)n21 [compound 144] |
| 0.98 | CC(O)CNC(=O)c1ccnc(C2(NC(=O)C3(NC(=O)c4cnc5n4[C@](C)(Cc4ccc(C#N)cc4)C(=O)N5c4cc(Cl)cc(Cl)c4)CC3)CC2)c1 (some centres unmarked) [compound 146] |

| IC50 [nM] | Structure (SMILES) |
| --- | --- |
| 0.34 | C[C@@]1(Cc2ccc(C#N)cc2)C(=O)N(c2cc(Cl)cc(Cl)c2)c2ncc(C(=O)NC3(C(=O)NC4(c5cc(C(=O)NCc6ccncc6)ccn5)CC4)CC3)n21 [compound 64] |
| 0.5 | C[C@@]1(Cc2ccc(C#N)cc2)C(=O)N(c2cc(Cl)cc(Cl)c2)c2ncc(C(=O)NC3(C(=O)NC4(c5cccc(C(=O)NCC(N)=O)n5)CC4)CC3)n21 [compound 127] |
| 1.3 | CC(=O)N1CCN(C(=O)c2ccnc(C3(NC(=O)C4(NC(=O)c5cnc6n5[C@](C)(Cc5ccc(C#N)cc5)C(=O)N6c5cc(Cl)cc(Cl)c5)CC4)CC3)c2)CC1 [compound 113] |
| 2.7 | C[C@H](NC(=O)c1ccc(C2(NC(=O)C3(NC(=O)c4cnc5n4[C@](C)(Cc4ccc(C#N)cc4)C(=O)N5c4cc(Cl)cc(Cl)c4)CC3)CC2)nc1)c1ccccc1 [compound 33] |
| 0.68 | C[C@@]1(Cc2ccc(C#N)cc2)C(=O)N(c2cc(Cl)cc(Cl)c2)c2ncc(C(=O)NC3(C(=O)NC4(c5ccc(C(=O)NCCN)cn5)CC4)CC3)n21 [compound 78] |
| 0.18 | C[C@@H](CO)NC(=O)c1ccnc(C2(NC(=O)C3(NC(=O)c4cnc5n4[C@](C)(Cc4ccc(C#N)cc4)C(=O)N5c4cc(Cl)cc(Cl)c4)CC3)CC2)c1 [compound 17] |
| 1.9 | C[C@@]1(Cc2ccc(C#N)cc2)C(=O)N(c2cc(Cl)cc(Cl)c2)c2ncc(C(=O)NC3(C(=O)NC4(c5ccc(C(=O)N6CCC(C(N)=O)CC6)cn5)CC4)CC3)n21 [compound 147] |
| 2.4 | CN1CCN(C(=O)c2ccc(C3(NC(=O)C4(NC(=O)c5cnc6n5[C@](C)(Cc5ccc(C#N)cc5)C(=O)N6c5cc(Cl)cc(Cl)c5)CC4)CC3)nc2)CC1 [compound 37] |
| 1.4 | C[C@@]1(Cc2ccc(C#N)cc2)C(=O)N(c2cc(Cl)cc(Cl)c2)c2ncc(C(=O)NC3(C(=O)NC4(c5cc(C(=O)N6CCC(CO)CC6)ccn5)CC4)CC3)n21 [compound 7] |
| 4 | C[C@@]1(Cc2ccc(C#N)cc2)C(=O)N(c2cc(Cl)cc(Cl)c2)c2ncc(C(=O)NC3(C(=O)NC4(c5cc(C(=O)NCCc6ccccc6)ccn5)CC4)CC3)n21 [compound 32] |
| 0.29 | C[C@@]1(Cc2ccc(C#N)cc2)C(=O)N(c2cc(Cl)cc(Cl)c2)c2ncc(C(=O)NC3(C(=O)NC4(c5ccc(C(=O)NCc6ccco6)cn5)CC4)CC3)n21 [compound 3] |
| 0.56 | C[C@@]1(Cc2ccc(C#N)cc2)C(=O)N(c2cc(Cl)cc(Cl)c2)c2ncc(C(=O)NC3(C(=O)NC4(c5cccc(C(=O)N6CCOCC6)n5)CC4)CC3)n21 [compound 145] |
| 2.5 | C[C@@]1(Cc2ccc(C#N)cc2)C(=O)N(c2cc(Cl)cc(Cl)c2)c2ncc(C(=O)NC3(C(=O)NC4(c5ccc(C(=O)NCCc6ccncc6)cn5)CC4)CC3)n21 [compound 169] |
| 2.2 | C[C@@]1(Cc2ccc(C#N)cc2)C(=O)N(c2cc(Cl)cc(Cl)c2)c2ncc(C(=O)NC3(C(=O)NC4(c5ccc(C(=O)NCCc6ccccc6)cn5)CC4)CC3)n21 [compound 134] |
| 2.5 | C[C@@]1(Cc2ccc(C#N)cc2)C(=O)N(c2cc(Cl)cc(Cl)c2)c2ncc(C(=O)NC3(C(=O)NC4(c5cccc(C(=O)N6CCC[C@H]6C(N)=O)n5)CC4)CC3)n21 [compound 28] |
| 3.6 | C[C@@]1(Cc2ccc(C#N)cc2)C(=O)N(c2cc(Cl)cc(Cl)c2)c2ncc(C(=O)NC3(C(=O)NC4(c5cccc(C(=O)N6CCNCC6)n5)CC4)CC3)n21 [compound 39] |
| 0.3 | C[C@H](NC(=O)c1cccc(C2(NC(=O)C3(NC(=O)c4cnc5n4[C@](C)(Cc4ccc(C#N)cc4)C(=O)N5c4cc(Cl)cc(Cl)c4)CC3)CC2)n1)c1ccccc1 [compound 165] |
| 0.37 | CC(=O)NCCNC(=O)c1ccnc(C2(NC(=O)C3(NC(=O)c4cnc5n4[C@](C)(Cc4ccc(C#N)cc4)C(=O)N5c4cc(Cl)cc(Cl)c4)CC3)CC2)c1 [compound 132] |
| 0.99 | CC(NC(=O)c1ccnc(C2(NC(=O)C3(NC(=O)c4cnc5n4[C@](C)(Cc4ccc(C#N)cc4)C(=O)N5c4cc(Cl)cc(Cl)c4)CC3)CC2)c1)c1cccnc1 (some centres unmarked) [compound 139] |
| 0.84 | C[C@@]1(Cc2ccc(C#N)cc2)C(=O)N(c2cc(Cl)cc(Cl)c2)c2ncc(C(=O)NC3(C(=O)NC4(c5cc(C(=O)NC6CCC6)ccn5)CC4)CC3)n21 [compound 114] |
